This passage reports fluorescent readings results from patent US20100204128A1, “NOVEL PEPTIDES” (SANARE INVESTMENT AS, priority 2007, published 2010).

Several values for one entry are separate records, joined by “and”; a condition that tells them apart may be missing. Identical values can stand only once.

Holding throughout (type): cell-based
Common to all, as to details: 24 hours, duplicate wells

For one assay, the system named is TMX2-28 cells. Nature of the assay: AlmarBlue fluorescence cell growth test, TMX2-28 cells. The protocol:
With that, the 5×10^−3M mixture contains about 0.42×10^−3M of each peptide. Furthermore, mixtures containing equal volumes of peptides SEQ ID NO:2-SEQ ID NO:7, SEQ ID NO:10 and SEQ ID NO:11 were also prepared (equal volumes of said re-feed media) to yield the following final six concentrations: […] With that, the 5×10^−3M mixture contains about […].
(§1) MCF-7 and T47D cells were seeded into 96-well plates at a density of 10,000 cells per well in 90 μL of appropriate culture medium. TMX2-28 cells were seeded into 96-well plates at a density of 5,000 cells per well in 90 μL of appropriate culture medium. Plates were placed in a 37° C., 5% CO2 incubator and cells were allowed to attach to the bottom of the well for 24 hours after which 10 μL of the appropriate refeed medium was added. Each concentration was tested in duplicate in each cell line. […] Cells were then incubated for 24 hours. Subsequently 10 μL of AlmarBlue (Biosource) was added to each well. After three hours, the fluorescence was detected using a Packard Instrument Plate Reader with 535/20 excitation and 590/20 emission filters.

The test system of a further assay is MCF-7 cells. Nature of the assay: AlmarBlue fluorescence cell growth test, MCF-7 cells. On the procedure: (§2) Re-feed media were prepared to yield the following final six concentrations of each of the 12 peptides: 5×10^−3, 5×10^−4, 5×10^−5, 5×10^−6, 5×10^−7, and 5×10^−8M. […] With that, the 5×10^−3M mixture contains about 0.42×10^−3M of each peptide. […] With that, the 5×10^−3M mixture contains about 0.42×10^−3M of each of said 8 peptides.
as §1

The test system of another assay is T47D cells. Nature of the assay: AlmarBlue fluorescence cell growth test, T47D cells. The protocol: as §2, §1
[1] abbreviates: 5 × 10^−4 M (mixtures: total concentration), decrease vs DC5 = reduced cell growth.
The mark [2] stands for this setting: 5 × 10^−5 M (mixtures: total concentration).
The mark [3] stands for this setting: 5 × 10^−6 M (mixtures: total concentration).
Setting [4] is: 5 × 10^−7 M (mixtures: total concentration).
Where [5] appears, read: 5 × 10^−8 M (mixtures: total concentration).
[6] abbreviates: 5 × 10^−9 M (mixtures: total concentration).

“SEQIDNO7: synthesised peptide identified in the 10 kDa blood fraction after acupuncture; sequence not printed in the text (RMSIQCDVWRSKFLASRV; Derived from human blood sample)”: the fluorescent readings was 58887 and 60090 in the assay on TMX2-28 cells (setting [1]); 64931 and 66366 in the assay on TMX2-28 cells (setting [2]); 68010 and 67591 with TMX2-28 cells (setting [3]); 68325 and 70586 with TMX2-28 cells (setting [4]); 67109 and 70471 in the assay on TMX2-28 cells (setting [5]); 62010 and 66328 in the assay with TMX2-28 cells (setting [6]). Besides, the fluorescent readings in the assay with MCF-7 cells (setting [1]) was 64171 and 62704; with MCF-7 cells (setting [2]), 67257 and 64433; with MCF-7 cells (setting [3]), 66311 and 66105; with MCF-7 cells (setting [4]), 63995 and 67019; in the assay on MCF-7 cells (setting [5]) it was 65755 and 66292; with MCF-7 cells (setting [6]), 60589 and 62763. For the same substance, the fluorescent readings in the assay with T47D cells (setting [1]) was 62688 and 60767; in the assay on T47D cells (setting [2]), 68041 and 64777; in the assay with T47D cells (setting [3]), 66479 and 60908; with T47D cells (setting [4]), 65388 and 63864; in the assay with T47D cells (setting [5]) it was 64353 and 63685; with T47D cells (setting [6]), 64124 and 63134.
On to “SEQIDNO8: synthesised peptide identified in the 10 kDa blood fraction after acupuncture; sequence not printed in the text (GVLLVRAPPACLQVLR; Derived from human blood sample)”, for which the fluorescent readings in the assay on TMX2-28 cells (setting [1]) was 63114 and 65457; in the assay on TMX2-28 cells (setting [2]) it was 67475 and 69324; in the assay on TMX2-28 cells (setting [3]), 68833 and 70414; with TMX2-28 cells (setting [4]), 70559 and 72074; in the assay with TMX2-28 cells (setting [5]), 70603 and 73593; in the assay on TMX2-28 cells (setting [6]), 68676 and 68864. For the same substance, the fluorescent readings in the assay with MCF-7 cells (setting [1]) is 64002 and 64485; with MCF-7 cells (setting [2]), 68720 and 70447; in the assay on MCF-7 cells (setting [3]), 69897 and 70376; in the assay with MCF-7 cells (setting [4]), 68985 and 70404; in the assay on MCF-7 cells (setting [5]) it was 68423 and 68263; with MCF-7 cells (setting [6]) it was 61653 and 66015. For the same substance, the fluorescent readings is 62688 and 60767 in the assay with T47D cells (setting [1]); 68041 and 64777 in the assay with T47D cells (setting [2]); 66479 and 60908 in the assay with T47D cells (setting [3]); 65388 and 63864 in the assay on T47D cells (setting [4]); 64353 and 63685 in the assay with T47D cells (setting [5]); 64124 and 63134 with T47D cells (setting [6]).
Regarding “SEQIDNO9: synthesised peptide identified in the 10 kDa blood fraction after acupuncture; sequence not printed in the text (SSNNGCMRDPTLYRCK; Derived from human blood sample)”, the fluorescent readings was 71608 and 70176 in the assay with TMX2-28 cells (setting [1]); 69255 and 69328 in the assay on TMX2-28 cells (setting [2]); 69234 and 68280 with TMX2-28 cells (setting [3]); 67663 and 69155 in the assay on TMX2-28 cells (setting [4]); 67229 and 67807 in the assay on TMX2-28 cells (setting [5]); 68009 and 65131 in the assay on TMX2-28 cells (setting [6]). In addition, the fluorescent readings in the assay on MCF-7 cells (setting [1]) was 67879 and 68176; with MCF-7 cells (setting [2]) it was 65563 and 69218; in the assay with MCF-7 cells (setting [3]), 65046 and 65931; with MCF-7 cells (setting [4]) it was 63071 and 65962; with MCF-7 cells (setting [5]), 57728 and 62231; in the assay with MCF-7 cells (setting [6]), 62556 and 61065. In addition, the fluorescent readings in the assay on T47D cells (setting [1]) was 67492 and 77427; with T47D cells (setting [2]), 63181 and 64535; in the assay with T47D cells (setting [3]), 62848 and 62359; in the assay with T47D cells (setting [4]) it was 63130 and 68689; in the assay with T47D cells (setting [5]), 60146 and 64467; with T47D cells (setting [6]) it was 65094 and 67070.
Consider “SEQIDNO10: synthesised peptide identified in the 10 kDa blood fraction after acupuncture; sequence not printed in the text (GGVLSPADKTNVK; Derived from human blood sample)”, for which the fluorescent readings in the assay with TMX2-28 cells (setting [1]) is 74950 and 67668; with TMX2-28 cells (setting [2]), 70143 and 70096; with TMX2-28 cells (setting [3]) it was 68926 and 71006; with TMX2-28 cells (setting [4]), 68674 and 69541; in the assay on TMX2-28 cells (setting [5]) it was 67904 and 70174; in the assay with TMX2-28 cells (setting [6]) it was 64358 and 65678. The fluorescent readings in the assay with MCF-7 cells (setting [1]) is 66888 and 71581; in the assay on MCF-7 cells (setting [2]), 67041 and 68134; with MCF-7 cells (setting [3]), 68442 and 69458; with MCF-7 cells (setting [4]), 67343 and 65315; in the assay on MCF-7 cells (setting [5]) it was 62238 and 64184; with MCF-7 cells (setting [6]) it was 62410 and 63264. The fluorescent readings with T47D cells (setting [1]) is 58905 and 62040; in the assay with T47D cells (setting [2]) it was 62235 and 61799; with T47D cells (setting [3]) it was 61232 and 61422; in the assay on T47D cells (setting [4]) it was 61576 and 62488; in the assay on T47D cells (setting [5]), 62058 and 61865; with T47D cells (setting [6]), 63213 and 64672.
Regarding “SEQIDNO11: synthesised peptide identified in the 10 kDa blood fraction after acupuncture; sequence not printed in the text (TLAGENQTALEIEELNRK; Derived from human blood sample)”, the fluorescent readings with TMX2-28 cells (setting [1]) is 66600 and 67446; with TMX2-28 cells (setting [2]), 67045 and 66528; with TMX2-28 cells (setting [3]) it was 66568 and 64759; in the assay with TMX2-28 cells (setting [4]), 64371 and 65373; with TMX2-28 cells (setting [5]) it was 65587 and 66707; in the assay with TMX2-28 cells (setting [6]) it was 64433 and 65703. Besides, the fluorescent readings in the assay on MCF-7 cells (setting [1]) was 65114 and 72373; in the assay with MCF-7 cells (setting [2]), 65947 and 68983; with MCF-7 cells (setting [3]) it was 64058 and 64030; in the assay with MCF-7 cells (setting [4]) it was 63837 and 64861; in the assay with MCF-7 cells (setting [5]) it was 60430 and 65118; in the assay on MCF-7 cells (setting [6]), 60886 and 63795. The fluorescent readings with T47D cells (setting [1]) is 61976 and 62453; in the assay with T47D cells (setting [2]), 61546 and 64267; in the assay with T47D cells (setting [3]), 62448 and 60200; with T47D cells (setting [4]), 62557 and 63900; with T47D cells (setting [5]), 62018 and 64649; with T47D cells (setting [6]), 63935 and 65696.
With “SEQIDNO12: synthesised peptide identified in the 10 kDa blood fraction after acupuncture; sequence not printed in the text (PVLTLDMPSSERGK; Derived from human blood sample)”, the fluorescent readings in the assay with TMX2-28 cells (setting [1]) was 64801 and 66313; in the assay with TMX2-28 cells (setting [2]), 67335 and 67800; in the assay with TMX2-28 cells (setting [3]) it was 69868 and 69586; with TMX2-28 cells (setting [4]), 67062 and 68845; in the assay on TMX2-28 cells (setting [5]), 68382 and 67167; in the assay on TMX2-28 cells (setting [6]), 66458 and 66191. Besides, the fluorescent readings with MCF-7 cells (setting [1]) is 64634 and 66223; in the assay on MCF-7 cells (setting [2]), 67452 and 68292; in the assay on MCF-7 cells (setting [3]), 67604 and 67923; with MCF-7 cells (setting [4]) it was 65967 and 68650; in the assay on MCF-7 cells (setting [5]), 64530 and 64993; with MCF-7 cells (setting [6]) it was 59810 and 61717. The fluorescent readings in the assay with T47D cells (setting [1]) is 57184 and 62215; with T47D cells (setting [2]), 62230 and 62786; in the assay with T47D cells (setting [3]), 64065 and 63826; with T47D cells (setting [4]) it was 64023 and 65295; with T47D cells (setting [5]), 65019 and 65289; with T47D cells (setting [6]), 62179 and 65227.
